Measurements published in patent publication US12017975B2, “Myc-Max inhibitor compound therapeutics for cancer treatment, methods and uses associated therewith” (THE UNIVERSITY OF BRITISH COLUMBIA, priority 2018, dated 2024).
Where two headings read alike, the source gives them in different places.

Key:
LNCaP cells [1] = test: LNCaP cell viability (PrestoBlue); assay type: cell-based; settings: Homo sapiens, 96 hours, 0-25 μM, read-out: IC50 LNCaP cell proliferation / viability
Protocol: (§1) LNCaP were plated at 5000 cells per well in RPMI 1640 containing 5% CSS in a 96-well plate, treated with test compounds (0-25 μM) for 96 hours. Cell density was measured using the PrestoBlue™ assay according to the manufacturer's protocol. The percentage of cell survival was normalized to the cell density of control wells treated by vehicle. Viability of Myc-negative […] cells was done similarly but in DMEM supplemented with 5% CSS.
(§2) The effect of hit compounds on Myc-driven cell proliferation was evaluated by measuring the cell viability of LNCaP cells after treatment with increasing concentrations of compounds.

[2] = test system: Myc-Max/UBE2C downstream pathway; test: UBE2C promoter luciferase reporter assay in 22rv1 cells; assay type: cell-based; settings: Homo sapiens, 25 μM
Protocol: (§3) Cell transfection was performed using TransIT-2020™ transfection reagents according to the manufacturer's instructions (Mirus™). LNCaP cells were plated at 10000 cells per well and treated for 1 day with the indicated concentration of compound. Myc reporter activity was measured using the Cignal Myc Reporter Assay Kit™ from Qiagen™ (#336841) according to the manufacturer's instructions. For the UBE2C reporter assay, 22rv1 cells were plated at 10000 cells per well in 96-well plates in RPMI media supplemented with 5% charcoal-stripped serum (CSS) and treated for 1 day with 1 μM, 10 μM and 25 μM of compound.
Myc inhibition was recently reported to reduce levels of the constitutively active androgen receptor splice variant AR-V7 in 22rv1 cells. […] The dose-dependent reduction of luciferase levels by the identified hits indicates a Myc-related reduction of AR-V7 level in the cells (see TABLE 1). […] The AR-V7 reduction with the hits was confirmed by Western blot (FIG. 2B).

Myc-Max interaction = biological target: T1, Myc-Max interaction (Homo sapiens, UniProt P01106); test: Mammalian two-hybrid assay in PC3 cells; assay type: cell-based; settings: various concentrations
T1 construct: expressed in transfected cells; host or cells: PC3 cells
Protocol: Full lengths Myc and Max were cloned in pBIND and pACT plasmids (CheckMate™, Promega™), respectively. PC3 cells in RPMI 1640 supplemented with 5% FBS were seeded in 96-well plates at 5,000 cells/well. After 24 hours, cells were transfected with 15 ng of pACT-Max, 19.5 ng of pBIND-Myc, and 13.6 ng of the reporter plasmid PG5-luciferase. After 24 hours, cells were treated with various concentrations of the tested inhibitors. Cells were lysed the next day, and the luminescence signal was measured after adding 50 μL of luciferase assay reagent (Promega™). Each measurement was done in 4 replicates with biological replicates of 3. Luciferase levels corresponding to Myc-Max interactions were measured and normalized to a control provided by the commercial kit to discard non-specific effect due to toxicity or direct luciferase inhibition.
The effect of inhibitors of Myc-Max interaction was studied by using a mammalian two hybrid assay. Full lengths Myc and Max were cloned in pBIND and pACT plasmids (CheckMate™, Promega™), respectively. Luciferase levels corresponding to Myc-Max interactions were measured and normalized to a control provided by the commercial kit to discard non-specific effect due to toxicity or direct luciferase inhibition.

[3] = Cell viability of Myc negative (c-Myc knockout) HO15.19 cells; assay type: cell-based; settings: rat, HO15.19 cells (c-Myc knockout, Myc-negative); 25 μM; read-out: % inhibition of Myc negative HO15.19 cells (cytotoxicity)
Protocol: as §1, §2

[4] = test system: Myc-Max transcriptional activity; test: Cignal c-Myc luciferase reporter assay in LNCaP cells; assay type: cell-based; settings: Homo sapiens
Protocol: as §3
Compounds were subjected to experimental evaluation using the commercially available transcriptional assay Cignal c-Myc luciferase reporter assay in LNCaP cells. […] A transiently transfected Myc-driven luciferase reporter allowed the monitoring of Myc-regulated signal in LNCaP upon treatment with the in silico identified compounds.

Myc-Max complex = biological target: T2, Myc-Max complex (Homo sapiens, UniProt P01106+P61244); test: Biolayer interferometry of Myc-Max binding to biotinylated E-box DNA; settings: for Myc-Max interaction with immobilized E-box DNA: 500 μM compound (FIG. 3C); for BLI binding: TABLE 2
T2 construct: GST tagged Myc (residues 368-454); Histidine tagged Max (residues 23-102); made in house; host or cells: E. coli BL21-DE3
Protocol: Histidine tagged Max (residues 23-102) and GST tagged Myc (residues 368-454) were overexpressed in E. coli BL21-DE3 cells. Cells were co-lyzed in lysis buffer (20 mM Tris pH 8, 500 mM NaCl, 5% glycerol, 10 mM imidazole, 8 mM BME, 2.1 mM PMSF). After sonication and centrifugation, the complex was first purified by using a Ni-NTA affinity resin. After overnight dialysis to remove the imidazole, the protein sample was applied to a size exclusion chromatography equilibrated with (20 mM Tris pH 8, 150 mM NaCl, 5% glycerol, 0.2 mM TCEP). Fractions containing equal amount of Myc and Max on SDS PAGE were collected and used for the binding assay. The presence of both proteins was validated by Western blot using a specific antibody of each protein (Max (h2) Sc-8011 and c-Myc (9E10) Sc-40, Santa Cruz Biotechnology™)
The direct interaction between biotinylated E-box oligo ([…]) immobilized on a streptavidin biosensor and a purified Myc-Max complex (0.05 mg/ml) was quantified by BLI using OctetRED (ForteBio™). The DNA was first bound to the super-streptavidin sensors over 1000 sec at 25° C. The sensors were next moved into wells containing the reaction buffer (20 mM Tris pH 8, 150 mM NaCl, 5% glycerol, 0.2 mM TCEP, 5% dimethylsulfoxide) for measuring the baseline and next into the Myc-Max complex alone or in presence of the tested inhibitors to study the association of the complex to the DNA.
Direct Binding and disruption of protein-DNA interaction. To study the direct effect of our hit compounds VPC-70063 and VPC-70067 on the interaction between Myc-Max heterodimer and the DNA, we used Bio-Layer Interferometry (BLI, ForteBio™). This technique is a label-free technology allowing the measurement of direct interactions between two partners, one immobilized on a sensor and the other one present in a solution. We applied this technology to study the disruption of the interaction between a biotinylated E-box oligo immobilized on a streptavidin biosensor and a purified Myc-Max complex in presence of our compounds. Therefore, histidine-tagged Max (residues 23-102) and GST tagged Myc (residues 368-454) were overexpressed and co-purified. The fraction containing equal amount of Myc and Max was collected and used for the binding assay (FIG. 3B). The presence of both proteins was validated by Western blot using a specific antibody of each protein. […] Additionally, we tested the ability of our best compound VPC-70063 to disrupt the interaction of MYC/MAX with DNA in a dose dependent manner.

LNCaP cells [5] = test: PARP cleavage (apoptosis) by Western blot in LNCaP cells; assay type: cell-based; settings: for PARP effect: TABLE 2, LNCaP cells
Protocol: After 48 hours of treatment with Myc compounds, LNCaP cells were lysed, and protein sample preparation followed by Western blotting were performed. Blots were incubated with primary antibodies against c-Myc, PARP (Sigma™ 084M4766V), PARP cleaved-Asp214 (Sigma™ SAB4500487) and β-Actin (Sigma™ A2066) overnight at 4° C., followed by appropriate peroxidase-conjugated secondary antibodies. β-actin served as an internal control. Visualization of the immunocomplexes was done by an enhanced chemiluminescence detection system (Millipore™) followed by exposure to X-ray films.
Apoptosis. Myc inhibition induces cell death by cell cycle arrest and apoptosis. Cleavage of PARP-1 by caspases is considered a hallmark of apoptosis and so we measured the ability of compounds to induce PARP cleavage after treatment.

HO15.19 cells = test: Cell viability of Myc negative (c-Myc knockout) HO15.19 cells; assay type: cell-based; settings: Rattus norvegicus, HO15.19; read-out: % inhibition Myc K.O cells (12 uM)
Protocol: as §1, §2

[6] = LNCaP, 24 h, 25 μM, LNCaP cells, TABLE 1, read-out: Myc-Max transcriptional activity % inhibition (25 μM)
[7] = LNCaP, 25 μM, TABLE 3, read-out: % Inhibition 25 μM
[8] = LNCaP, TABLE 2, assay not named, values match Myc-Max transcriptional activity, read-out: IC50
[9] = LNCaP cells, dose response, Cignal c-Myc kit, read-out: IC50 Myc-Max transcriptional activity
[10] = LNCaP, 25 μM, TABLE 4, read-out: % Inhibition (25 μM)

T2 sequence (P01106 368-454): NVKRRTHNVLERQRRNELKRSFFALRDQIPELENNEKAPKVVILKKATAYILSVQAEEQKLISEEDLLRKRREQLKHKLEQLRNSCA
T2 sequence (P61244 23-102): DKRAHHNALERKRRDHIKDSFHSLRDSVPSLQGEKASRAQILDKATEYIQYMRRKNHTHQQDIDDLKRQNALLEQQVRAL
T1 sequence (P01106 whole entry): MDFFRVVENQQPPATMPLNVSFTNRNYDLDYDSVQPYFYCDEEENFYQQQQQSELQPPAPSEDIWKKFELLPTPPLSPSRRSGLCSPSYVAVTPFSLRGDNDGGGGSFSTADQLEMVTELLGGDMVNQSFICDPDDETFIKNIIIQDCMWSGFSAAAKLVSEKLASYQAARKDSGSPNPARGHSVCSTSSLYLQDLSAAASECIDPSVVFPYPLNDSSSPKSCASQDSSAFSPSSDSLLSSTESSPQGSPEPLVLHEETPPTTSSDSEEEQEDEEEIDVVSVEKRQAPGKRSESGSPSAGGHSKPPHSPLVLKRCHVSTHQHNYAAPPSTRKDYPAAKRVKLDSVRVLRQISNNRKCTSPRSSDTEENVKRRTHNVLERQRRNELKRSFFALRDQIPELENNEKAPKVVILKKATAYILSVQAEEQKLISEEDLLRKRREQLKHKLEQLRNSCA

Row | SMILES | inhibition at 25 µM [2] | inhibition at 25 µM [4, 6] | PARP effect (LNCaP cells [5]) | inhibition at 12 µM (HO15.19 cells) | inhibition at 25 µM [4, 7] | IC50 [4, 8] | BLI binding (Myc-Max complex) | also measured
1 | CCc1ccc(/C=C2\SC(=S)NC2=O)cc1 [Compound 10058-F4, [Z,E]-5-[4-ethylbenzylidine]-2-thioxothiazolidin-4-one, reference compound] | 70% |  |  |  |  |  |  | IC50 (LNCaP cells [1]): 18.3 µM
2 | O=[N+]([O-])c1ccc(Nc2ccccc2-c2ccccc2)c2nonc12 [Compound 10074-G5, reference compound] |  | 88% |  |  |  |  |  | effect on Myc-Max interaction (Myc-Max interaction): did not show any effect; inhibition at 96 h, 25 µM [3]: 37%; IC50 (LNCaP cells [1]): 8.7 µM; Myc-Max interaction with immobilized E-box DNA (Myc-Max complex): prevented from interacting with the immobilized DNA
3 | NC(=O)c1ccsc1NC(=O)Nc1cccc(C(F)(F)F)c1 [VPC-70021] | 73% | 95% | nil | 0% | 95% | 10 µM | average | IC50 [4, 9]: 8.5 µM
4 | CC(=O)Nc1ccc(Nc2cc(Cl)c(C(F)(F)F)cc2[N+](=O)[O-])cc1 [VPC-70033] | 51% | 81% | nil |  | 81% | 10 µM | weak | 
5 | S=C(NCc1ccc(Cl)c(Cl)c1)Nc1cccnc1 [VPC-70053] | 50% | 73% |  |  | 73% | 11 µM |  | 
6 | CN1C(=O)/C(=C\C=C\c2ccco2)SC1=S [VPC-70064] | 64% | 78% |  |  |  |  |  | inhibition at 25 µM [4, 10]: 78%
7 | O=C1NC(=S)S/C1=C\c1ccccc1C(F)(F)F [VPC-70067] | 71% | 98% | good | 3% |  | 22 µM | strong | PARP cleavage / apoptosis (LNCaP cells [5]; LNCaP cells, Western blot): inducing PARP cleavage; IC50 (LNCaP cells [1]): 11.1 µM; inhibition at 25 µM [4, 10]: 98%; IC50 [4, 9]: 22.7 µM; Myc-Max interaction with immobilized E-box DNA (Myc-Max complex): prevented from interacting with the immobilized DNA
8 | CC(C)(C)[C@H]1CCc2sc(C(=O)N3CCC(C(N)=O)CC3)cc2C1 [VPC-70068] | 58% | 73% | average |  | 73% |  |  | 
9 | O=C(NNc1ccc(C(F)(F)F)cc1[N+](=O)[O-])c1cnccn1 [VPC-70127] |  |  | strong | 19% |  | 1 µM | weak | inhibition at 25 µM ([4]; LNCaP, 25 μM, TABLE 6, read-out: % Inhibition 25 μM): 106%
10 | O=C(NCc1cnn(Cc2ccccc2)c1)[C@@H]1COc2ccccc2O1 [VPC-70215] |  |  | weak | 29% | 101% | 20 µM |  | 
11 | O=C(CCc1c[nH]c2ccccc12)Nc1nc2ccccc2[nH]1 [VPC-70223] |  |  |  | 40% | 103% | 10 µM |  | 
12 | CC(C)C[C@H](NC(=O)C(Cc1ccccc1)NC(=O)CNC(=O)[C@H](C)NC(=O)[C@@H](N)Cc1ccc(O)cc1)C(=O)OCc1ccccc1 (some centres unmarked) [VPC-70413] |  |  | weak |  |  |  | weak | IC50 ([4]; LNCaP): 15 µM; inhibition at 25 µM ([4]; LNCaP, read-out: % Inhibition 25 μM): 114%
